Measurements published in patent publication US9682941B2, “Substituted biphenyl analogues as dual inhibitors of aromatase and sulfatase” (ESTRYX PHARMA LIMITED, priority 2013, dated 2017).

How the values were obtained:
[1] = target: CYP2C19 (Homo sapiens, UniProt P33261); test: Cytochrome P450 inhibition, human recombinant CYP2C19; type: in vitro ADME; conditions: recombinant human CYP, 10 minutes, 37° C.
Procedure: (§1) Inhibitory activity of the compounds towards CYP1A2, 2C9, 2C19, 2D6, and 3A4 was evaluated using human recombinant CYPs. Test compounds and reference inhibitors were initially prepared from their stock solutions in a mixture solvent of DMSO/ACN (10/90) at a concentration of 200-fold of the final. A 3-fold serial dilution (1/3, 1/9, 1/27 etc.) was made in the DMSO/ACN mixture solvent to generate 7 consecutive concentrations. The serially diluted solutions of test compounds and reference inhibitors (positive controls) were further diluted directly in recombinant human CYP enzymes in assay buffer (0.1 M potassium phosphate buffer, pH7.4) to reach the concentration of 2-fold of the final (2×). Aliquots of 30 μL of 2× compound/enzyme solutions were loaded to a 96-well assay plates and preincubated at 37° C. for 10 minutes. An aliquot of 15 μL of prewarmed 4× substrate solutions made in the assay buffer was added into each of the wells containing the 2× compound/enzyme mixtures. Finally, the reaction was initiated by adding an aliquot of 15 μL of 4×NADPH made in the assay buffer and the assay plates were further incubated at 37° C. for a time period designated for each isoform (5 minutes for 3A4, 20 minutes for 2C9, 10 minutes for 2D6 and 2C19, and 15 minutes for 1A2). The reactions were stopped by adding 120 μL ACN containing the stable isotopes of the metabolites for corresponding CYP isoforms, followed by vortexing for 5 minutes and centrifugation at 4000 rpm for 15 minutes. The resulting supernatants were transferred into new 96-well plates for LC-MS/MS analysis. Experiments are performed in duplicate. The inhibitory concentration of 50% of the enzymatic activity is calculated.

[2] = target: CYP2C9 (Homo sapiens, UniProt P11712); test: Cytochrome P450 inhibition, human recombinant CYP2C9; type: in vitro ADME; conditions: recombinant human CYP, 20 minutes, 37° C.
Chain of CYP2C9 (P11712 whole entry): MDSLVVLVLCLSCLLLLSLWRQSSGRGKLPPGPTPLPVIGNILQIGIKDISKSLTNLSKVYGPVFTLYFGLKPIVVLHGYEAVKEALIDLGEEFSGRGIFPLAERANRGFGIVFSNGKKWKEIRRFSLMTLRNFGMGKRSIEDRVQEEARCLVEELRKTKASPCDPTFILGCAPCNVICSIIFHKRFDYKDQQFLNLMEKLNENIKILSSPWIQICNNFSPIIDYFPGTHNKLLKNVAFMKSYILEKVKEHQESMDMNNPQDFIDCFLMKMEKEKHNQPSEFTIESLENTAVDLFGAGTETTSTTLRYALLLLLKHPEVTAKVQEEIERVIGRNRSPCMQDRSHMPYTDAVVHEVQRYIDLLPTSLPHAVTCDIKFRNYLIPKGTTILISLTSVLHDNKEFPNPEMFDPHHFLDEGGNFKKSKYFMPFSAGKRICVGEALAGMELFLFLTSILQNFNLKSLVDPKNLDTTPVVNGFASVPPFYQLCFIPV
Procedure: as §1

[3] = target: CYP3A4 (Homo sapiens, UniProt P08684); test: Cytochrome P450 inhibition, human recombinant CYP3A4; type: in vitro ADME; conditions: recombinant human CYP, 5 minutes, 37° C.
Chain of CYP3A4 (P08684 whole entry): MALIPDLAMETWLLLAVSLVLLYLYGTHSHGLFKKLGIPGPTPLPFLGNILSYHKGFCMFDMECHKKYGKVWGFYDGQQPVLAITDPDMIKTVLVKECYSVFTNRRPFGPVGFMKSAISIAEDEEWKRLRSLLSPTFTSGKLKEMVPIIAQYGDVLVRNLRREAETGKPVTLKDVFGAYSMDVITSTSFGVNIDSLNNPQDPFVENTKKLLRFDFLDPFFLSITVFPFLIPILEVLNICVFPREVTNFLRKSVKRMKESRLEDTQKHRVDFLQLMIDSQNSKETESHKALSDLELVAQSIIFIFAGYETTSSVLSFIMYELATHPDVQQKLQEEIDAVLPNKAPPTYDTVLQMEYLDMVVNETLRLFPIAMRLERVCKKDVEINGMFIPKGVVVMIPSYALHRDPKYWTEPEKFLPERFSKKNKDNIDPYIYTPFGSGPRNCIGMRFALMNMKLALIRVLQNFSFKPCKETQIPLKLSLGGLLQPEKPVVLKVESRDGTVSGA
Procedure: as §1

[4] = target: T1, steroid sulfatase (Homo sapiens, UniProt P08842); test: Steroid sulfatase (STS) inhibition assay in JEG-3 cells ([6,7-3H] estrone sulfate); type: cell-based; conditions: 1 hour at 37° C., duplicate
T1 construct: JEG-3 which constitutively expresses high amount of aromatase and steroid sulfatase; endogenous in cells; host or cells: JEG-3
T1 sequence (P08842 22-583): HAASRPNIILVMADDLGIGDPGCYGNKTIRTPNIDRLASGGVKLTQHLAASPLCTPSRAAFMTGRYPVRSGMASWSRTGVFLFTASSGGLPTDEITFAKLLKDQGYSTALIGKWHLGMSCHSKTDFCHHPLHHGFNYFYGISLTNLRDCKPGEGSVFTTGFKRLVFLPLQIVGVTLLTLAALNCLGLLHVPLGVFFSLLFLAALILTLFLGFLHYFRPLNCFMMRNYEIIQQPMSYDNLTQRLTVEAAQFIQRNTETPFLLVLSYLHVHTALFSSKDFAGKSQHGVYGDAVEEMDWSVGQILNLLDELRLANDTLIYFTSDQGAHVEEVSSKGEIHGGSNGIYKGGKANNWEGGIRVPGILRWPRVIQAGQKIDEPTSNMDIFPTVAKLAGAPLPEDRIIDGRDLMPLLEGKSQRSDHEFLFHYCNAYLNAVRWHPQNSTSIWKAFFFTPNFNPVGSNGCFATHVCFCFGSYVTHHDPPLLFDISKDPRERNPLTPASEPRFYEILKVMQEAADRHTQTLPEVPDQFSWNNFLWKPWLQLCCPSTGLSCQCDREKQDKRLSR
Procedure: (§2) Aromatase and steroid sulfatase enzymes inhibitions were evaluated in the human chorionic carcinoma cell line JEG-3 which constitutively expresses high amount of aromatase and steroid sulfatase.
For STS assay, JEG-3 cells were seeded into 24-well culture plates at 150,000 cells/ml/well and maintained in MEM containing supplements overnight. When reaching 80% confluent, the cells were washed once with serum-free MEM, loaded with 1 ml of substrate mix containing [6,7-3H] Estrone sulfate (E1S, 0.6 μCi/ml) and [4-14C] Estrone (E1, 4 nCi/ml) in the presence of compounds in a concentration series, and incubated for 1 hour at 37° C. The product [3H]E1 was separated from E1S by toluene partition using [4-14C]E1 to monitor extraction procedural losses, and the toluene fraction radioactivity was measured by a MicroBeta scintillation counter.
(§3) Experiments are performed in duplicate. The inhibitory concentration of 50% of the enzymatic activity is calculated.

[5] = target: T2, CYP1A2 (Homo sapiens, UniProt P05177); test: Cytochrome P450 inhibition, human recombinant CYP1A2; type: in vitro ADME; conditions: recombinant human CYP, 15 minutes, 37° C.
T2 sequence (P05177 1-516): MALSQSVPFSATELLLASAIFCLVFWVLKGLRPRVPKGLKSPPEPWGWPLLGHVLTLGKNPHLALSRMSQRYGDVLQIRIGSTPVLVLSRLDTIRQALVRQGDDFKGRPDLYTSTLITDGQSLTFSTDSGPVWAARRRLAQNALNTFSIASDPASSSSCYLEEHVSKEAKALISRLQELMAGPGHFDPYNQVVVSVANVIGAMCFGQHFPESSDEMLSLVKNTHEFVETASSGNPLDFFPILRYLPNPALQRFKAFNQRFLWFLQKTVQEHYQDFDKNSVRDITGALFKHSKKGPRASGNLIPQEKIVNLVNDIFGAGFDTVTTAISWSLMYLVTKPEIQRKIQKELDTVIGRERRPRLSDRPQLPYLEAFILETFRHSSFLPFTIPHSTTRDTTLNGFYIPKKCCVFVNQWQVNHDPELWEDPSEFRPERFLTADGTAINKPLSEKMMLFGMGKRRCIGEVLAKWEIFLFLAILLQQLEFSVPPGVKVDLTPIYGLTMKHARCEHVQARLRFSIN
Procedure: as §1

[6] = target: CYP2D6 (Homo sapiens, UniProt P10635); test: Cytochrome P450 inhibition, human recombinant CYP2D6; type: in vitro ADME; conditions: recombinant human CYP, 10 minutes, 37° C.
Chain of CYP2D6 (P10635 whole entry): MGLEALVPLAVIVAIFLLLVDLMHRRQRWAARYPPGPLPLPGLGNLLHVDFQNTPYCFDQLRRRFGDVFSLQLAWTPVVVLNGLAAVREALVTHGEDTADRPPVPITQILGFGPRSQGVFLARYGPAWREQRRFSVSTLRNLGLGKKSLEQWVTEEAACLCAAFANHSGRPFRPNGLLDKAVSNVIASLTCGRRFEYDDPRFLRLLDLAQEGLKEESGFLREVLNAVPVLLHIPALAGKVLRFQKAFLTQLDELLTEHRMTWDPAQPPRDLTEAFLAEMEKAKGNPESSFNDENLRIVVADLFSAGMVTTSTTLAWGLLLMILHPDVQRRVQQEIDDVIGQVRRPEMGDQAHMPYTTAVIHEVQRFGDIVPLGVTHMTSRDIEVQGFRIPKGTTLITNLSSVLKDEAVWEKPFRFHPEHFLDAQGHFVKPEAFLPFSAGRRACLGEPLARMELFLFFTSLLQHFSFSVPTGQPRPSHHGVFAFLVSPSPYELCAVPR
Procedure: as §1

[7] = target: T3, aromatase (Homo sapiens, UniProt P11511); test: Aromatase inhibition assay in JEG-3 cells ([1β-3H] androstenedione, tritiated water release); type: cell-based; conditions: 1.25 hour incubation, duplicate
T3 construct: JEG-3 which constitutively expresses high amount of aromatase and steroid sulfatase; endogenous in cells; host or cells: JEG-3
T3 sequence (P11511 1-503): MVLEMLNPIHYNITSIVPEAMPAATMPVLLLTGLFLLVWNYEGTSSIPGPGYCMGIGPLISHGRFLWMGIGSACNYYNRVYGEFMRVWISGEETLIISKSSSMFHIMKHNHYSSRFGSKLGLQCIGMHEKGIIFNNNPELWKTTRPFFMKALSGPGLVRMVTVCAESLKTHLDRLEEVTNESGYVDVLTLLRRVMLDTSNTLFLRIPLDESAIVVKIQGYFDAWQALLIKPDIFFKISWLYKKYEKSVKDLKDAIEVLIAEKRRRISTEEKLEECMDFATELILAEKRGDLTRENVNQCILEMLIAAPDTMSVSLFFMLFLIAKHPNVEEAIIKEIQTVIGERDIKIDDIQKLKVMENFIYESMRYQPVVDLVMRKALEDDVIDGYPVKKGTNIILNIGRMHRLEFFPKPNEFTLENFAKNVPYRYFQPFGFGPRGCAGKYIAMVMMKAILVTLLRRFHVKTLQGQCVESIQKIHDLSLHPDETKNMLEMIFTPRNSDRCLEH
Procedure: as §2
For aromatase inhibition assay, JEG-3 cells were seeded into 96-well plates at 35,000 cells/well and maintained in MEM containing supplements. When reaching 80% confluent, the cells were washed once with serum-free MEM, incubated with [1β-^3H] androstenedione (A4, 0.2 μCi/ml) for 1.25 hour in the presence of the test substances added in a concentration series. The product, tritiated water (^3H2O), was separated using 2.5% (w/v) dextran-coated charcoal at 4-8° C. for 2 hours. The supernatant radioactivity was measured by a MicroBeta scintillation counter.
as §3

Chain of CYP2C19 (P33261 whole entry): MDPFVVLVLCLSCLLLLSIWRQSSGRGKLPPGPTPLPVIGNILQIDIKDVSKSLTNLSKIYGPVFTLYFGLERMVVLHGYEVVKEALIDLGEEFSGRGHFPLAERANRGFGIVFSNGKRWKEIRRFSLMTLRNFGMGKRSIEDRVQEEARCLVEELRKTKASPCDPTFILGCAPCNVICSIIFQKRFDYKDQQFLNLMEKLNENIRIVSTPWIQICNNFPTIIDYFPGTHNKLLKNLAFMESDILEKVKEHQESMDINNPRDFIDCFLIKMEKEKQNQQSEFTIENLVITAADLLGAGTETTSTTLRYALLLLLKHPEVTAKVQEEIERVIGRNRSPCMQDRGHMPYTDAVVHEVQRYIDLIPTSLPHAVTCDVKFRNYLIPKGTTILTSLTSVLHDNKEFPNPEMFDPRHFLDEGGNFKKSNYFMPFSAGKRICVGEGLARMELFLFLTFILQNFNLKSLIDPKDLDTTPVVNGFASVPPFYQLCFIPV

| Structure (SMILES) | IC50 [1] [µM] | IC50 [2] [µM] | IC50 [3] [µM] | IC50 [4] [nM] | IC50 [5] [µM] | IC50 [6] [µM] | IC50 [7] [nM] |
| --- | --- | --- | --- | --- | --- | --- | --- |
| N#Cc1cnc(Cn2cnc3ccccc32)nc1-c1ccc(OS(N)(=O)=O)cc1 [Example 9, 4-(2-((1H-Benzo[d]imidazol-1-yl)methyl)-5-cyanopyrimidin-4-yl)phenyl sulfamate] | > 5 | > 5 | 3.68 | 1.8 | > 5 | > 5 | 3.5 |
| N#Cc1cnc(Cn2cnc3ccccc32)cc1-c1ccc(OS(N)(=O)=O)cc1 [Example 17, 4-(2-((1H-Benzo[d]imidazol-1-yl)methyl)-5-cyanopyridin-4-yl)phenyl sulfamate] | > 5 | > 5 | > 5 | 3.9 | > 5 | > 5 | 2.2 |
| N#Cc1ccc(Nn2cnc3ccccc32)nc1-c1ccc(OS(N)(=O)=O)cc1 [Example 22, 4-(6-(1H-Benzo[d]imidazol-1-ylamino)-3-cyanopyridin-2-yl)phenyl sulfamate] | > 5 | > 5 | > 5 | 6 | > 5 | > 5 | 3.7 |
| N#Cc1ccc(Cn2cnc3cc(F)c(F)cc32)cc1-c1ccc(OS(N)(=O)=O)cc1 [Example 24, 2′-Cyano-5′-((5,6-difluoro-1H-benzo[d]imidazol-1-yl)methyl)biphenyl-4-yl sulfamate] | > 5 | > 5 | 3.26 | 2 | > 5 | > 5 | 0.9 |

Now from value to compound:

| IC50 [1] [µM] | IC50 [2] [µM] | IC50 [3] [µM] | IC50 [4] [nM] | IC50 [5] [µM] | IC50 [6] [µM] | IC50 [7] [nM] | Structure (SMILES) |
| --- | --- | --- | --- | --- | --- | --- | --- |
| > 5 | > 5 | 2.54 | 11.8 | > 5 | > 5 | 2.7 | N#Cc1cnc(Nn2cnc3ccccc32)cc1-c1ccc(OS(N)(=O)=O)cc1 [Example 26, 4-(2-(1H-Benzo[d]imidazol-1-ylamino)-5-cyanopyridin-4-yl)phenyl sulfamate] |
| > 5 | > 5 | > 5 | 10.5 | > 5 | > 5 | 4.6 | N#Cc1ncc(Cn2cnc3ccccc32)cc1-c1ccc(OS(N)(=O)=O)cc1 [Example 31, 4-(5-((1H-Benzo[d]imidazol-1-yl)methyl)-2-cyanopyridin-3-yl)phenyl sulfamate] |
| > 5 | > 5 | > 5 | 10.5 | > 5 | > 5 | 2 | N#Cc1cnc(Cn2cnc3cccnc32)cc1-c1ccc(OS(N)(=O)=O)cc1 [Example 36, 4-(2-((3H-Imidazo[4,5-b]pyridin-3-yl)methyl)-5-cyanopyridin-4-yl)phenyl sulfamate] |
|  |  |  | > 60 |  |  | 16.3 | N#Cc1ncc(Cn2cnc3cccnc32)cc1-c1ccc(OS(N)(=O)=O)cc1 [Example 50, 4-(5-((3H-imidazo[4,5-b]pyridin-3-yl)methyl)-2-cyanopyridin-3-yl)phenyl sulfamate] |
|  |  |  | 15.5 |  |  | 2.2 | N#Cc1ncc(Cn2cnc3cc(F)c(F)cc32)cc1-c1ccc(OS(N)(=O)=O)cc1 [Example 51, 4-(2-Cyano-5-((5,6-difluoro-1H-benzo[d]imidazol-1-yl)methyl)pyridin-3-yl)phenyl sulfamate] |
|  |  |  | 5.4 |  |  | 2.9 | N#Cc1cnc(Cn2cnc3cc(F)c(F)cc32)nc1-c1ccc(OS(N)(=O)=O)cc1 [Example 52, 4-(5-Cyano-2-((5,6-difluoro-1H-benzo[d]imidazol-1-yl)methyl)pyrimidin-4-yl)phenyl sulfamate] |
